Measurements published in patent publication EP0107890B1, “Mammalian PGRF” (THE SALK INSTITUTE FOR BIOLOGICAL STUDIES, priority 1982, dated 1986).
Where no end group is shown, it is not given here.

How the values were obtained:
[1] = tested on: pituitary cells; assay: in vitro growth hormone release assay in rat pituitary cell cultures (immunoreactive GH by radioimmunoassay); assay type: cell-based
Protocol: To determine the effectiveness of the peptides to promote the release of growth hormone, in vitro assays are carried out using synthetic PGRF(1-40) of Example II in side-by-side comparison with equimolar concentrations of the extracted and purified native PGRF (1-40) and of a GRF Reference Standard having a known effectiveness to promote the release of growth hormone from pituitary cells. The GRF Reference standard is described and defined in Brazeau, et al., Endocrinology, Vol. 110, A538(1982) and is an amount of a preparation of rat hypothalamic origin that produces a half-maximal response in terms of GH release in a pituitary cell monolayer bioassay. Cultures are used which include cells of rat pituitary glands removed some four to five days previously. Both cultures of a defined standard medium and cultures which are considered optimal for the secretion of growth hormone are used for the comparative testing, in the general manner described in Brazeau, et al. Regulatory Peptides, 1, 255, 1981. Incubation with the substance to be tested is carried out for 3 to 4 hours, and aliquots of the culture medium are removed and processed to measure their contents in immunoreactive GH(ir GH) by a well-characterized radioimmunoassay.

[2] = tested on: normal male rats; assay: in vivo secretion of pituitary growth hormone after injection into anesthetized rats; conditions: injected into rats
Description: In addition to the in vitro tests for secretion of growth hormone, in vivo experiments were also run by injecting the synthetic peptide into normal male rats about 200 g. body weight, anesthetized with pentobarbital.

PGRF(1-40) (YADAIFTNSYRKVLGQLSARKLLQDIMSRQQGESNQERGA-OH; UniProt P01286 32-71, looked up, fragment) [Example II]
ED50 ([1]; GH release from rat pituitary cell cultures, incubation 3 to 4 hours): about 113 picograms | biological activity compared with the native peptide ([1]; in equimolar ratios, versus extracted and purified native PGRF (1-40)): full biological activity of the native peptide | GH-releasing activity in vivo [2]: powerful stimulator of the secretion of pituitary growth hormone
